Experimental data taken from patent US12410428B2, “RNA-guided transcriptional regulation and methods of using the same for the treatment of back pain” (University of Utah Research Foundation, priority 2018, dated 2025).

How the values were obtained:
TNFR1 = assay: Human NP cell CRISPRi: TNFR1 knockdown by qRT-PCR; type: cell-based; conditions: human NP cells
Method: Human NP Cell CRISPRi. […] Quantitative RT-PCR was performed to identify TNFR1 knockdown in these primary human NP cells. Additionally, flow-cytometry was performed to determine transduction efficiency in human NP cells.

[1] = test system: TNFR1 signaling (NF-κB activity); assay: NF-κB activity assay in HEK293T cells dosed with TNF-α; type: cell-based, human; conditions: 0.15 ng/mL TNF-α, 24 hours
Method: Measurement of functional effects of epigenome editing based gene downregulation. NE-κB activity assays. HEK293T cells and hADMSCs were transduced with the earlier mentioned NF-κB reporter vector and analyzed for changes in NF-κB activity in response to dosing cells with TNF-α/IL-1β (RnD systems, ProSpec). To further describe, cells expressing the NF-κB reporter were plated in white 96-well plates (HEK293T cells at 25,000 cells/well and hADMSCs at 5000 cells/well) and allowed to attach overnight. The next day cells were dosed with the appropriate amounts of inflammatory cytokines (0, […], 1, and/or 10 ng/mL of TNF-α/IL-1β) for 24 hours. At 24 hours luminescence corresponding to NF-κB activity was measured in one set of cells using the bright glo assay (Promega) and cell number was measured on another set of cells under the same treatment using the real-time glo assay (Promega). Changes in NF-κB activity were quantified as a fold change in luminescence relative to the no dose control for each cell type, with NF-κB activity normalized to cell number.

Substance	TNFR1 knockdown (TNFR1; with dCas9-KRAB) [%]	TNFR1 knockdown (TNFR1; with dCas9 alone)	NF-κB activity vs no dose control [1]
5′-AUAAGCGUCCGACACAUGAU-3′ (expressed or natural sequence) [TNFR1 gRNA 4, 82]	55	no knockdown	
5′-CAGUGUUGCAACAGCGGGAC-3′ (expressed or natural sequence) [TNFR1 gRNA 1, 79]			no significant increase in NF-κB activity
